In patent publication US20030225152A1, “3-(Arylamino)methylene-1, 3-dihydro-2h-indol-2-ones as kinase inhibitors” (priority 2001, published 2003):

Key:
[1] = molecular target: T1, cytoplasmic domain of the human VEGF receptor (VEGFR-2) (Homo sapiens, UniProt P35968); experiment: KDR Assay; type: biochemical; settings: His-VEGFR-2; 3.6 μM ATP
T1 construct: The cytoplasmic domain of the human VEGF receptor (VEGFR-2) was expressed as a Histidine-tagged fusion protein; Histidine tag
Method: The cytoplasmic domain of the human VEGF receptor (VEGFR-2) was expressed as a Histidine-tagged fusion protein following infection of insect cells using an engineered baculovirus. His-VEGFR-2 was purified to homogeneity, as determined by SDS-PAGE, using nickel resin chromatography. Kinase assays were performed in 96 well microtiter plates that were coated overnight with 30 μg of poly-Glu-Tyr (4:1) in 10 mM Phosphate Buffered Saline (PBS), pH 7.2-7.4. The plates were incubated with 1% BSA and then washed four times with PBS prior to starting the reaction. Reactions were carried out in 120 μL reaction volumes containing 3.6 μM ATP in kinase buffer (50 mM Hepes buffer pH 7.4, 20 mM MgCl2, 0.1 mM MnCl2 and 0.2 mM Na3VO4). Test compounds were reconstituted in 100% DMSO and added to the reaction to give a final DMSO concentration of 5%. Reactions were initiated by the addition 0.5 ng of purified protein. Following a ten minute incubation at 25° C., the reactions were washed four times with PBS containing 0.05% Tween-20. 100 μl of a monoclonal anti-phosphotyrosine antibody-peroxidase conjugate was diluted 1:10000 in PBS-Tween-20 and added to the wells for 30 minutes. Following four washes with PBS-Tween-20, 100 μl of O-phenylenediamine Dihydrochloride in Phosphate-citrate buffer, containing urea hydrogen peroxide, was added to the wells for 7 minutes as a colorimetric substrate for the peroxidase. The reaction was terminated by the addition of 100 μl of 2.5N H2SO4 to each well and read using a microplate ELISA reader set at 492 nm. IC50 values for compound inhibition were calculated directly from graphs of optical density (arbitrary units) versus compound concentration following subtraction of blank values.

[2] = test system: VEGF induced increases in intracellular calcium levels in HUVEC (human umbilical vein endothelial cells); experiment: VEGF Stimulated Ca++ Signal in vitro (FLIPR); type: cell-based; settings: VEGF 5 ng/mL; for IC50: 0.01 to 10.0 μM
In short: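 IC50 values derive from % inhibition of the VEGF (5 ng/mL) calcium response, taken as max-min fluorescence at 516 nm in Fluo-4-loaded HUVEC. Compounds (0.1% DMSO final) were added 30 min before stimulation, at 10 μM or across 0.01–10.0 μM.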

T1 sequence (P35968 786-1356): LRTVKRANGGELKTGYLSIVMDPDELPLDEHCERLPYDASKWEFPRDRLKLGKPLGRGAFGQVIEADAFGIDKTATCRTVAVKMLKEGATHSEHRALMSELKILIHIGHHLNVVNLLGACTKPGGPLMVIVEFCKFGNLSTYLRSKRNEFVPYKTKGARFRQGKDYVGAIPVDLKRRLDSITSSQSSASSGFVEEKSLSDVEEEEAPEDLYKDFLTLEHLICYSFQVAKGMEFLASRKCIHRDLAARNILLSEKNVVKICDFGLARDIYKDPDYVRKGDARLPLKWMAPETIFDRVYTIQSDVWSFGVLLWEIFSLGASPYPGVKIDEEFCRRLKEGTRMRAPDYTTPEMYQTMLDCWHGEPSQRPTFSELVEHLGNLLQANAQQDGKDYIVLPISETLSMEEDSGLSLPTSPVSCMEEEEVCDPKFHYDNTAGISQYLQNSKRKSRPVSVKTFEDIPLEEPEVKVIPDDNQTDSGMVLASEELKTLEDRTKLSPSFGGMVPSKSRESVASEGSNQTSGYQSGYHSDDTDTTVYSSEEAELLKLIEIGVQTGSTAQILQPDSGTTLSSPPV

Structure (SMILES)	IC50 [1] [nM]	IC50 ([2]; Homo sapiens) [nM]	inhibition at 10 µM ([2]; Homo sapiens) [%]	IC50 [2] [nM]
CCOc1ccc(NC=C2C(=O)Nc3ccccc32)cc1 [Example 82, 3-[(4-Ethoxyphenylamino)-methylene]-1,3-dihydro-indol-2-one]	380	2500		
O=C1Nc2ccccc2C1=CNc1ccc(CCO)cc1 [Example 87, 3-{[4-(2-Hydroxyethyl)phenylamino]-methylene}-1,3-dihydro-indol-2-one]	460	2250	79.5	
O=C1Nc2ccccc2C1=CNc1ccc(CO)cc1 [Example 88, 3-[(4-Hydroxymethyl-phenylamino)-methylene]-1,3-dihydro-indol-2-one]	410	≤ 1000	97.5	1000
Cc1cccc2c1C(=CNc1ccc3cn[nH]c3c1)C(=O)N2 [Example 90, 3-[(1H-Indazol-6-ylamino)-methylene]-4-methyl-1,3-dihydro-indol-2-one]	220		97.8	
COc1ccc(NC=C2C(=O)Nc3cccc(C)c32)cc1F [Example 91, 3-[(3-Fluoro-4-methoxy-phenylamino)-methylene]-4-methyl-1,3-dihydro-indol-2-one]	240	3020	93.5	
Cc1cccc2c1C(=CNc1ccc3ncsc3c1)C(=O)N2 [Example 92, 3-(Benzothiazol-6-ylaminomethylene)-4-methyl-1,3-dihydro-indol-2-one]	150	1770	69	
COC(=O)c1ccc(NC=C2C(=O)Nc3cccc(C)c32)cc1OC [Example 93, 2-Methoxy-4-[(4-methyl-2-oxo-1,2-dihydro-indol-3-ylidenemethyl)-amino]-benzoic acid methyl ester]	630	6620	51.5	
COc1cccc(NC=C2C(=O)Nc3ccccc32)c1 [Example 94, 3-[(3-Methoxy-phenylamino)-methylene]-1,3-dihydro-indol-2-one]	640	3880	92.5	
Cc1cccc2c1C(=CNc1ccc(O)cc1)C(=O)N2 [Example 96, 3-[(4-Hydroxy-phenylamino)-methylene]-4-methyl-1,3-dihydro-indol-2-one]	200	1680	97	
Cc1cccc2c1C(=CNc1ccc3cc[nH]c3c1)C(=O)N2 [Example 97, 3-[(1H-Indol-6-ylamino)-methylene]-4-methyl-1,3-dihydro-indol-2-one]	200	1860	96.5	
Cc1cccc2c1C(=CNc1ccc(CO)cc1)C(=O)N2 [Example 99, 3-[(4-Hydroxymethyl-phenylamino)-methylene]-4-methyl-1,3-dihydro-indol-2-one]	210		97.8	
COc1ccc(NC=C2C(=O)Nc3ccc(Cl)cc32)cc1OC [Example 102, 5-Chloro-3-[(3,4-dimethoxyphenylamino)-methylene]-1,3-dihydro-indol-2-one]	650	5910	82.5	
O=C1Nc2ccc(Cl)cc2C1=CNc1ccc2cn[nH]c2c1 [Example 103]	480	1040	96.6	

Continued, in another order:

IC50 [1] [nM]	Structure (SMILES)	IC50 ([2]; Homo sapiens) [nM]	inhibition at 10 µM ([2]; Homo sapiens) [%]	IC50 [2] [nM]
230	O=C1Nc2ccc(Cl)cc2C1=CNc1ccc(N2CCOCC2)cc1 [Example 106, 5-Chloro-3-[(4-morpholinophenylamino)-methylene]-1,3-dihydro-indol-2-one]	≤ 1000	96.6	600
600	CCN(CC)Cc1cc(NC=C2C(=O)Nc3ccc(Cl)cc32)ccc1O [Example 109, 5-Chloro-3-[(4-hydoxy-3-(diethylaminomethyl)phenylamino)-methylene]-1,3-dihydro-indol-2-one]	1700	96.5	
570	O=C1Nc2ccc(Cl)cc2C1=CNc1ccc2[nH]ccc2c1 [Example 110, 5-(5-Chloro-2-oxo-1,2-dihydro-indol-3-ylidenemethylamino)indole]	1550	95	
430	O=C1Nc2ccc(Cl)cc2C1=CNc1ccc(CO)cc1 [Example 111, 5-Chloro-3-[(4-(hydoxymethyl)phenylamino)-methylene]-1,3-dihydro-indol-2-one]	1170	98.5	
200	Cc1cccc2c1C(=CNc1ccc(CCO)cc1)C(=O)N2 [Example 113, 3-{[4-(2-Hydroxy-ethyl)-phenylamino]-methylene}-4-methyl-1,3-dihydro-indol-2-one]		97.5	
920	CC(=O)Nc1ccc(NC=C2C(=O)Nc3ccc(Cl)cc32)cc1 [Example 114, N-{4-[(5-Chloro-2-oxo-1,2-dihydro-indol-3-ylidenemethyl)-amino]-phenyl}-acetamide]	1930	89	
470	O=C(O)Cc1ccc(NC=C2C(=O)Nc3ccc(Cl)cc32)cc1 [Example 115, {4-[(5-Chloro-2-oxo-1,2-dihydro-indol-3-ylidenemethyl)-amino]-phenyl}-acetic acid]	3080	98.2	
980	NS(=O)(=O)c1ccc(NC=C2C(=O)Nc3ccc(Cl)cc32)cc1 [Example 116, 4-[(5-Chloro-2-oxo-1,2-dihydro-indol-3-ylidenemethyl)-amino]-benzenesulfonamide]	1640	99.4	
310	COc1ccc(NC=C2C(=O)Nc3cccc(C)c32)cc1O [Example 117, 3-[(3-Hydroxy-4-methoxy-phenylamino)-methylene]-4-methyl-1,3-dihydro-indol-2-one]		97.7	
530	Cc1cccc2c1C(=CNc1ccc(OC(F)F)cc1)C(=O)N2 [Example 119, 3-{[4-(1,1-Difluoro-methoxy)-phenylamino]-methylene}-4-methyl-1,3-dihydro-indol-2-one]	1340	89.3	
370	CCOc1ccc(NC=C2C(=O)Nc3cccc(C)c32)cc1 [Example 122, 3-[(4-Ethoxy-phenylamino)-methylene]-4-methyl-1,3-dihydro-indol-2-one]	1540	71.7	
590	Cc1cccc2c1C(=CNc1ccc(C(C)C)cc1)C(=O)N2 [Example 123, 3-[(4-Isopropyl-phenylamino)-methylene]-4-methyl-1,3-dihydro-indol-2-one]	4430	49.9	
520	Cc1cccc2c1C(=CNc1ccc3c(c1)OCO3)C(=O)N2 [Example 124, 3-(Benzo[1,3]dioxol-5-ylaminomethylene)-4-methyl-1,3-dihydro-indol-2-one]	1960	71.9	
670	Cc1ccc(NC=C2C(=O)Nc3cccc(C)c32)cc1O [Example 125, 3-[(3-Hydroxy-4-methyl-phenylamino)-methylene]-4-methyl-1,3-dihydro-indol-2-one]	1860	96.5	
340	COc1ccc(NC=C2C(=O)Nc3cccc(C)c32)cc1OC [Example 126, 3-[(3,4-Dimethoxy-phenylamino)-methylene]-4-methyl-1,3-dihydro-indol-2-one]	1220	95.2	
460	Cc1cccc2c1C(=CNc1ccc(C#N)cc1)C(=O)N2 [Example 128, 4-[(4-Methyl-2-oxo-1,2-dihydro-indol-3-ylidenemethyl)-amino]-benzonitrile]	8260	42.9	
380	CC(=O)Nc1ccc(NC=C2C(=O)Nc3cccc(C)c32)cc1 [Example 130, N-{4-[(4-Methyl-2-oxo-1,2-dihydro-indol-3-ylidenemethyl)-amino]-phenyl}-acetamide]	≤ 1000	97.3	570
770	Cc1cccc2c1C(=CNc1ccc(CC(=O)O)cc1)C(=O)N2 [Example 131, {4-[(4-Methyl-2-oxo-1,2-dihydro-indol-3-ylidenemethyl)-amino]-phenyl}-acetic acid]	1550	96.7	
